Consider 18 compounds from patent US11028095B2, “Spiro-lactam and bis-spiro-lactam NMDA receptor modulators and uses thereof” (Aptinyx Inc., priority 2016, dated 2021).

pEC50: −log10 of the molar value. Read-outs that look alike come from different tables or passages of the source.

Holding throughout (type): biochemical
Assay [1] has as its target T1, NMDAR2A expressing HEK cell membranes (Homo sapiens, UniProt Q05586+Q12879).
T1 construct: expressed in transfected cells; host or cells: HEK cells (membrane extract)
Put plainly: NMDAR agonist assay, [3H]MK-801 binding, NMDAR2A. The following applies: for pEC50: NMDAR2A: log EC50, 50 μM glutamate; for pEC50 / EC50: [3H]MK-801 binding; for EC50 / Emax: 50 μM glutamate; for EC50: read-out: NMDAR2A: log EC50 (converted); for Emax: relative to 1 mM glycine, read-out: NMDAR2A: % maximal [3H]MK-801 binding relative to 1 mM glycine. On the procedure: (§1) (nonequilibrium conditions).
(§2) The baseline value was determined from the best fit curve of the DPM values modeled using the GraphPad program and the log(agonist) vs. response(three parameters) algorithm was then subtracted from all points in the dataset.

Assay [2] concerns the target T2, NMDAR2A expressing HEK cell membranes (Homo sapiens, UniProt Q12879).
T2 construct: expressed in transfected cells; host or cells: HEK cells (membrane extract)
Nature of the assay: NMDAR agonist assay, [3H]MK-801 binding, NMDAR2A. The following applies: 50 μM glutamate; relative to 1 mM glycine. On the procedure:
as §1, §2

Assay [3] concerns the target T3, NMDAR2B expressing HEK cell membranes (Homo sapiens, UniProt Q05586+Q13224).
T3 construct: expressed in transfected cells; host or cells: HEK cells (membrane extract)
Put plainly: NMDAR agonist assay, [3H]MK-801 binding, NMDAR2B. Particulars: for pEC50: NMDAR2B: log EC50, 50 μM glutamate; for pEC50 / EC50: [3H]MK-801 binding; for EC50: read-out: NMDAR2B log EC50 (converted). How it is done: as §1, §2

In assay [4] the target is T4, NMDAR2B expressing HEK cell membranes (Homo sapiens, UniProt Q13224).
T4 construct: expressed in transfected cells; host or cells: HEK cells (membrane extract)
Nature of the assay: NMDAR agonist assay, [3H]MK-801 binding, NMDAR2B. The following applies: 50 μM glutamate; for EC50: [3H]MK-801 binding, read-out: NMDAR2B log EC50 (converted). On the procedure:
as §1, §2

For assay [5], the target named is T5, NMDAR2D expressing HEK cell membranes (Homo sapiens, UniProt O15399+Q05586).
T5 construct: expressed in transfected cells; host or cells: HEK cells (membrane extract)
Nature of the assay: NMDAR agonist assay, [3H]MK-801 binding, NMDAR2D. The following applies: 50 μM glutamate; for EC50: [3H]MK-801 binding, read-out: NMDAR2D: log EC50 (converted); for Emax: relative to 1 mM glycine, read-out: NMDAR2D: % maximal [3H]MK-801 binding relative to 1 mM glycine. How it is done: as §1, §2

T4 sequence (Q13224 27-1484, other chains not shown): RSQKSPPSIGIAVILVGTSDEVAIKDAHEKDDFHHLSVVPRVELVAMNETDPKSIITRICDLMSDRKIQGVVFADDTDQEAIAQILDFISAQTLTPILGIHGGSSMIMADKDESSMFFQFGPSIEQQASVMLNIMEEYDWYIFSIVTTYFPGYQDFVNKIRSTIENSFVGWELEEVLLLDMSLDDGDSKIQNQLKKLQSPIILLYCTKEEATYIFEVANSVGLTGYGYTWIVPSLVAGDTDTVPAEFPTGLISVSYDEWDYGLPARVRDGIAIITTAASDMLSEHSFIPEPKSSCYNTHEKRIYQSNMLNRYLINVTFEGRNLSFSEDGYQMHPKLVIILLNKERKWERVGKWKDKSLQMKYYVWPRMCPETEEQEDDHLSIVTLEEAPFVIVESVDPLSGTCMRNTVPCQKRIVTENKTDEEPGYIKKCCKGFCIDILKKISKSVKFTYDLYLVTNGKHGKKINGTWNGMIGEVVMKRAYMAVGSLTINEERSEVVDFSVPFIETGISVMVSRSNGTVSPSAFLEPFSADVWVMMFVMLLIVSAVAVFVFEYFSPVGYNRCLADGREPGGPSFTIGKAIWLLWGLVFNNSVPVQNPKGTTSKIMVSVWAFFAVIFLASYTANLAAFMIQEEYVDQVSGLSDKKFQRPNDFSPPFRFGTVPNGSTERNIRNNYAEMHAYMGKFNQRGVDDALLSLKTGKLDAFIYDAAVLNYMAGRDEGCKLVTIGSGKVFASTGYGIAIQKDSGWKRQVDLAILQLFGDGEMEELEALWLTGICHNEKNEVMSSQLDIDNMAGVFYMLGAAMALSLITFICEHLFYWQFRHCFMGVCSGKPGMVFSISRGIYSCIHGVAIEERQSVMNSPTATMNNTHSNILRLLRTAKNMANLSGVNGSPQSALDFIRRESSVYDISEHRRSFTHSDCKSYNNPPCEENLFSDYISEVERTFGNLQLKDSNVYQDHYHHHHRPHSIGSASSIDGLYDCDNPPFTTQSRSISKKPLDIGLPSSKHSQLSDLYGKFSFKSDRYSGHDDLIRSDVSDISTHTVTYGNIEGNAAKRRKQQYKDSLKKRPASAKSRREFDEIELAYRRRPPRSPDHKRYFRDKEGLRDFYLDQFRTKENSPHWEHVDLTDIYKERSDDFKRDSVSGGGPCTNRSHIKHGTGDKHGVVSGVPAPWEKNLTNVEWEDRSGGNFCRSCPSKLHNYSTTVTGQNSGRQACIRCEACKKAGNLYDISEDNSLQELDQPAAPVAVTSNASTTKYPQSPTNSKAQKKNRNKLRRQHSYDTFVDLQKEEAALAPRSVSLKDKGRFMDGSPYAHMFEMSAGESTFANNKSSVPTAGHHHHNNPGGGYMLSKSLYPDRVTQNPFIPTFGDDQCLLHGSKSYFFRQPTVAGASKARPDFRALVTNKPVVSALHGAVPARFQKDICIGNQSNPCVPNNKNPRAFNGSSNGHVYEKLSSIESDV
T3 sequence (Q13224 27-1484, other chains not shown): as above
T1 sequence (Q12879 23-1464, other chains not shown): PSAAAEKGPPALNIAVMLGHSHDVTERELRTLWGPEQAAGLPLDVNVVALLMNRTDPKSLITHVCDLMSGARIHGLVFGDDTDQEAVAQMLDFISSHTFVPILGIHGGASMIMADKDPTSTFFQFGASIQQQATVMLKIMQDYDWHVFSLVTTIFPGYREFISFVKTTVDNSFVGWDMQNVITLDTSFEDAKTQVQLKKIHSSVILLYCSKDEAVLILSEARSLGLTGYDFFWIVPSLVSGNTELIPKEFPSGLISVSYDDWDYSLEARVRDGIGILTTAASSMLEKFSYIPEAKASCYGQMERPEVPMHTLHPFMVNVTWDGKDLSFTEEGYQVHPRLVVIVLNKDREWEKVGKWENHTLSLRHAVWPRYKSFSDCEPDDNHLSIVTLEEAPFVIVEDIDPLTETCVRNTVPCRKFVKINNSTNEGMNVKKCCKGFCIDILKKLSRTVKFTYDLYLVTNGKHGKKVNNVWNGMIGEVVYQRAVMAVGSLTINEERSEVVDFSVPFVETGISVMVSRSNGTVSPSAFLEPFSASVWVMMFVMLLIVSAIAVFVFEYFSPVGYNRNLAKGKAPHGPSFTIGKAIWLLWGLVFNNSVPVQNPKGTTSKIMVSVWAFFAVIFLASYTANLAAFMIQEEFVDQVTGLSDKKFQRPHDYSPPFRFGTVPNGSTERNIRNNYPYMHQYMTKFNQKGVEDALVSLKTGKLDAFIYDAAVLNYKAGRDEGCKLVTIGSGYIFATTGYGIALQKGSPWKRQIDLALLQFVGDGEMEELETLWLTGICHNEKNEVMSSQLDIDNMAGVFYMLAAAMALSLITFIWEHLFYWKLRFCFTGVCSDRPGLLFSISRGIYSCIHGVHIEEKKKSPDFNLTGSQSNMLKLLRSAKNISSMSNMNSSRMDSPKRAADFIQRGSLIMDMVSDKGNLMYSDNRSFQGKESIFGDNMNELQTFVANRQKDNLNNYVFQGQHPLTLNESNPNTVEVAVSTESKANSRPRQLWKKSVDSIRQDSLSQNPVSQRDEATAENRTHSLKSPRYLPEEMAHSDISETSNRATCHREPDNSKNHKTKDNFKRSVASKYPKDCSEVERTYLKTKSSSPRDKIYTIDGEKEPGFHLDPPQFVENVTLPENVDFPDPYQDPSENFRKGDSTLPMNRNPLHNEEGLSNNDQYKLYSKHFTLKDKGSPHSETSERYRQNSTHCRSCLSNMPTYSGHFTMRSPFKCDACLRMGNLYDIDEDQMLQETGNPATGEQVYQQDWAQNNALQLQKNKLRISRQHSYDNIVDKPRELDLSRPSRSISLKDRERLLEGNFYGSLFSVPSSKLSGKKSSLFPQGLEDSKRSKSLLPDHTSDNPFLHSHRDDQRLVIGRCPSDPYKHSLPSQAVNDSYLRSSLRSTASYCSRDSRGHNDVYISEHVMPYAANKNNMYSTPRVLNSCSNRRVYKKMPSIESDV

Regarding `CN1C2(CCC13CNC3=O)CNC2=O` (single isomer, unassigned) [AB-1, 5-methyl-2,5,8-triazadispiro[3.1.36.24]undecane-1,7-dione], the pEC50 in assay [1] was above 9.00; in assay [3], below 7.00. Moreover, in assay [2], the “NMDAR2A: % maximal [3H]MK-801 binding relative to 1 mM glycine” value was “+ (<100%=+)”. For the same compound, the “NMDAR2B: % maximal [3H]MK-801 binding relative to 1 mM glycine” value in assay [4] is reported as “− (−=0)”.

For the compound `O=C1NCC12CCC1(CNC1=O)N2` (single isomer, unassigned) [AK, 2,5,8-triazadispiro[3.1.36.24]undecane-1,7-dione], the negative logarithm of the EC50 (pEC50) in assay [1] and in assay [3] was below 7.00 throughout. The “NMDAR2A: % maximal [3H]MK-801 binding relative to 1 mM glycine” value in assay [2] is “− (−=0)”. The “NMDAR2B: % maximal [3H]MK-801 binding relative to 1 mM glycine” value in assay [4] is “− (−=0)”.

In the case of `CC(C)C(=O)N1C(C(=O)N[C@H](C(N)=O)[C@@H](C)O)CCC12CNC2=O` (single isomer, unassigned) [AR], the EC50 in assay [1] and in assay [3] (50 μM glutamate) was above 100 nM in each case. Further, the “NMDAR2A: % maximal [3H]MK-801 binding relative to 1 mM glycine” value in assay [2] is listed as “− (−=0)”. For the same compound, in assay [4], the “NMDAR2B: % maximal [3H]MK-801 binding relative to 1 mM glycine” value is reported as “− (−=0)”.

For `CC(C)(C)OC(=O)N1CC2(CN(OCc3ccccc3)C2=O)CC12CN(OCc1ccccc1)C2=O` (single isomer, unassigned) [AV, tert-butyl 2,8-bis(benzyloxy)-1,7-dioxo-2,8,10-triazadispiro[3.1.36.24]undecane-10-carboxylate], the values for the concentration giving a half-maximal response (EC50) in assay [1] and in assay [3] (50 μM glutamate) were above 100 nM and below 1 nM, respectively. In addition, the “NMDAR2A: % maximal [3H]MK-801 binding relative to 1 mM glycine” value in assay [2] is “− (−=0)”. Also, the “NMDAR2B: % maximal [3H]MK-801 binding relative to 1 mM glycine” value in assay [4] is reported as “+ (<100%=+)”.

As for `CC(C)(C)OC(=O)N1CC2(CN(OCc3ccccc3)C2=O)CC12CN(OCc1ccccc1)C2=O` (single isomer, unassigned) [AX, tert-butyl 2,8-bis(benzyloxy)-1,7-dioxo-2,8,10-triazadispiro[3.1.36.24]undecane-10-carboxylate], the EC50 in assay [1] is below 1 nM; in assay [3] (50 μM glutamate), above 100 nM. In addition, the “NMDAR2A: % maximal [3H]MK-801 binding relative to 1 mM glycine” value in assay [2] was “+ (<100%=+)”. For the same compound, in assay [4], the “NMDAR2B: % maximal [3H]MK-801 binding relative to 1 mM glycine” value is given as “− (−=0)”.

Turning to `CC(C)CN1C(C(=O)N[C@H](C(N)=O)[C@@H](C)O)CCC12CNC2=O` (single isomer, unassigned) [BA], the EC50 in assay [1] is below 1 nM; in assay [3] (50 μM glutamate) it was above 100 nM; in assay [5], below 1 nM. Moreover, the Emax in assay [1] and in assay [5] was below 100% in each case. The “NMDAR2B: % maximal [3H]MK-801 binding relative to 1 mM glycine” value in assay [4] is “− (−=0)”.

For `CC(C)(C)OC(=O)N1C(C(N)=O)CCC12CNC2=O` (single isomer, unassigned) [BE], the Emax in assay [1] and in assay [5] was below 100% each time. In addition, the concentration giving a half-maximal response (EC50) is above 100 nM in assay [3] (50 μM glutamate) and below 1 nM in assay [5]. Further, the “NMDAR2B: % maximal [3H]MK-801 binding relative to 1 mM glycine” value in assay [4] is “− (−=0)”.

As to `CC(C)(C)OC(=O)N1C(C(N)=O)CCC12CNC2=O` (single isomer, unassigned) [BF], the half-maximal effective concentration (EC50) in assay [1] and in assay [3] (50 μM glutamate) was below 1 nM each time. The “NMDAR2A: % maximal [3H]MK-801 binding relative to 1 mM glycine” value in assay [2] is “+ (<100%=+)”. Also, the “NMDAR2B: % maximal [3H]MK-801 binding relative to 1 mM glycine” value in assay [4] was “+ (<100%=+)”.

As for `C[C@@H](O)[C@H](NCC1CCC2(CNC2=O)N1C(=O)OC(C)(C)C)C(=O)N(C)C` (single isomer, unassigned) [BS], the concentration for a half-maximal effect (EC50) in assay [1] was above 100 nM; in assay [3] (50 μM glutamate), below 1 nM. Moreover, in assay [2], the “NMDAR2A: % maximal [3H]MK-801 binding relative to 1 mM glycine” value was “− (−=0)”. For the same compound, the “NMDAR2B: % maximal [3H]MK-801 binding relative to 1 mM glycine” value in assay [4] is “+ (<100%=+)”.

Regarding `C[C@@H](O)[C@H](NCC1CCC2(CNC2=O)N1C(=O)OC(C)(C)C)C(=O)N(C)C` (single isomer, unassigned) [BT], the figures for the EC50 in assay [1] and in assay [3] (50 μM glutamate) were below 1 nM and above 100 nM, respectively. In addition, the “NMDAR2A: % maximal [3H]MK-801 binding relative to 1 mM glycine” value in assay [2] is “+ (<100%=+)”. Moreover, in assay [4], the “NMDAR2B: % maximal [3H]MK-801 binding relative to 1 mM glycine” value is “− (−=0)”.

Turning to `C[C@@H](O)[C@H](NC1CN(C(=O)OC(C)(C)C)C2(CNC2=O)C1)C(N)=O` (single isomer, unassigned) [CG], the figures for the EC50 in assay [1] and in assay [3] (50 μM glutamate) were below 1 nM and above 100 nM, respectively. In assay [2], the “NMDAR2A: % maximal [3H]MK-801 binding relative to 1 mM glycine” value is on record as “+ (<100%=+)”. Besides, the Emax in assay [3] (50 μM glutamate, relative to 1 mM glycine, read-out: NMDAR2B: % maximal [3H]MK-801 binding relative to 1 mM glycine) was found to be 0%. The “NMDAR2B: % maximal [3H]MK-801 binding relative to 1 mM glycine” value in assay [4] was “− (−=0)”.

As for `CC(O)C(C(N)=O)N(C)CC1CCC2(CNC2=O)N1` (single isomer, unassigned) [CV], the half-maximal effective concentration (EC50) in assay [1] and in assay [3] (50 μM glutamate) was below 1 nM in each case. For the same compound, the “NMDAR2A: % maximal [3H]MK-801 binding relative to 1 mM glycine” value in assay [2] is given as “+ (<100%=+)”. In assay [4], the “NMDAR2B: % maximal [3H]MK-801 binding relative to 1 mM glycine” value is “++ (>100%=++)”.

For the compound `O=C1NCC12CN(Cc1ccc(F)cc1)C1(CNC1=O)C2` (single isomer, unassigned) [DM, 10-(4-fluorobenzyl)-2,8,10-triazadispiro[3.1.3^6.2^4]undecane-1,7-dione], the EC50 in assay [1] is below 1 nM. In assay [2], the “NMDAR2A: % maximal [3H]MK-801 binding relative to 1 mM glycine” value was “+ (<100%=+)”. Moreover, in assay [4], the half-maximal effective concentration (EC50) is below 1 nM and the “NMDAR2B: % maximal [3H]MK-801 binding relative to 1 mM glycine” value is recorded as “+ (<100%=+)”.

As to `O=C1NCC12CN(Cc1ccc(F)cc1)C1(CNC1=O)C2` (single isomer, unassigned) [DN, 10-(4-fluorobenzyl)-2,8,10-triazadispiro[3.1.3^6.2^4]undecane-1,7-dione], in assay [1], the EC50 is below 1 nM. The “NMDAR2A: % maximal [3H]MK-801 binding relative to 1 mM glycine” value in assay [2] is “+ (<100%=+)”. In assay [4], the half-maximal effective concentration (EC50) was below 1 nM and the “NMDAR2B: % maximal [3H]MK-801 binding relative to 1 mM glycine” value is recorded as “+ (<100%=+)”.

Turning to `O=C1NCC12CN(Cc1ccccc1)C1(CNC1=O)C2` (single isomer, unassigned) [DO, 10-benzyl-2,8,10-triazadispiro[3.1.3^6.2^4]undecane-1,7-dione], the EC50 was below 1 nM in assay [1] and above 100 nM in assay [3] (50 μM glutamate). Also, the “NMDAR2A: % maximal [3H]MK-801 binding relative to 1 mM glycine” value in assay [2] was “+ (<100%=+)”. For the same compound, the “NMDAR2B: % maximal [3H]MK-801 binding relative to 1 mM glycine” value in assay [4] is recorded as “− (−=0)”.

On to `O=C1NCC12CN(Cc1ccccc1)C1(CNC1=O)C2` (single isomer, unassigned) [DP, 10-benzyl-2,8,10-triazadispiro[3.1.3^6.2^4]undecane-1,7-dione], for which the 50% effective concentration (EC50) in assay [1] and in assay [3] (50 μM glutamate) was below 1 nM throughout. Also, the “NMDAR2A: % maximal [3H]MK-801 binding relative to 1 mM glycine” value in assay [2] is listed as “+ (<100%=+)”. The “NMDAR2B: % maximal [3H]MK-801 binding relative to 1 mM glycine” value in assay [4] is reported as “++ (>100%=++)”.

On to `O=C1NCC12CN(Cc1ccccc1)C1(CNC1=O)C2` (single isomer, unassigned) [DQ, 10-benzyl-2,8,10-triazadispiro[3.1.3^6.2^4]undecane-1,7-dione], for which the EC50 was above 100 nM in assay [1] and below 1 nM in assay [3] (50 μM glutamate). Also, the “NMDAR2A: % maximal [3H]MK-801 binding relative to 1 mM glycine” value in assay [2] is listed as “− (−=0)”. Further, in assay [4], the “NMDAR2B: % maximal [3H]MK-801 binding relative to 1 mM glycine” value is listed as “+ (<100%=+)”.

Regarding `O=C1NCC12CN(Cc1ccccc1)C1(CNC1=O)C2` (single isomer, unassigned) [DR, 10-benzyl-2,8,10-triazadispiro[3.1.3^6.2^4]undecane-1,7-dione], the EC50 in assay [1] and in assay [3] (50 μM glutamate) was below 1 nM throughout. Further, the “NMDAR2A: % maximal [3H]MK-801 binding relative to 1 mM glycine” value in assay [2] is reported as “+ (<100%=+)”. For the same compound, the “NMDAR2B: % maximal [3H]MK-801 binding relative to 1 mM glycine” value in assay [4] is listed as “+ (<100%=+)”.
